Values of other authors, collected in US20180325839A1, “TRANSDERMAL PATCHES” (BUZZZ PHARMACEUTICALS LIMITED, priority 2015, published 2018).

How the values were obtained:
[1] = local anaesthetic during cataract surgery

Structure (SMILES): CCCN1CCCC[C@H]1C(=O)Nc1c(C)cccc1C [ropivacaine, (2S)—N-(2,6-dimethylphenyl)-1-propyl-2-piperidinecarboxamide]
- Skin permeation characteristics compared with lidocaine saturated H2O (ropivacaine saturated H2O): significantly poorer
- In vivo skin penetration compared to a saturated solution of lidocaine (saturated solution of ropivacaine): poor
- Half-life compared with lidocaine [1]: longer
- Potency relative to lidocaine, dose-for-dose [1]: as much as four times as potent as lidocaine
